In patent US7105635B2, “Cyclic beta-sheet peptides useful as apoptotic/cytotoxic cancer agents” (The University of Toledo, priority 2002, dated 2006):
Entries after “also recorded” stand apart in the source; their conditions may differ. Like-named read-outs stand apart in the source and are kept apart here. Positions of bridges follow the written chain, without caps; N, C: chain ends. Residues, ends and D or L forms follow the SMILES beside them. No end group written: not given here. *: point of attachment. Biotin = O=C1N[C@H]2[C@H](CS[C@H]2CCCCC(=O)*)N1

Columns and labels:
CEM cells [1] = test: Annexin-V-FITC flow cytometry of phosphatidyl serine exposure (apoptosis), CEM cells; type: cell-based, human; conditions: 20 μM, control experiments
Protocol: FIGS. 10a–d are graphs showing comparisons of phosphatidyl serine exposure on the outer surface of CEM cells following a 2.5-hour incubation with or without 40 μM cyclized L1AD3. After incubation, cells were washed twice with cold PBS prior to adding FITC-conjugated Annexin-V. Flow cytometry using a B-D FACSCalibur was performed, and 10,000 cells were analyzed using the B-D CellQuest program. Individual cells are represented in the dot plots on the left (FIGS. 10a and 10c), and histograms of the same data are on the right (FIGS. 10b and d). Whereas untreated tumor cells show less than 6% spontaneous apoptosis (FIG. 10c, lower left quadrant), 93% of cells treated with L1AD3 undergo apoptosis after 2.5 hours (FIG. 10d, lower right quadrant).
Flow cytometry using fluorescent Annexin-V distinguishes cells with externalized phosphatidyl serine. As long as the cell's plasma membrane remains intact, fluorescent dyes such as ethidium bromide or propidium iodide are excluded. A 40 μM concentration of L1AD3 caused approximately 93% of CEM cells to become Annexin-V-positive within 2.5 hours, which is unusually short for signs of apoptosis to occur. Camptothecin, a cancer chemotherapeutic agent administered in control experiments at 20 μM, caused only 33% of the cells to appear apoptotic. […]

CEM cells [2] = test: cell permeability to ethidium bromide / propidium iodide, CEM cells; type: cell-based, human; conditions: for cell permeability to ethidium bromide or propidium iodide: CEM cells
Protocol: FIG. 11 is a graph showing changes in cell permeability to ethidium bromide following incubation with L1AD3 or with native CTX. CEM cells (10^6/ml) were incubated in quartz cuvets in a Shimidzu fluorescence spectrophotometer with 1 μg/ml ethidium bromide. Either CTX at a final concentration of 1.6 μM or L1AD3 at a final concentration of 40 μM was added, and readings were taken at 5-minute intervals, with excitation at 526 nm and emission measured at 608 nm.
Flow cytometry using fluorescent Annexin-V distinguishes cells with externalized phosphatidyl serine. As long as the cell's plasma membrane remains intact, fluorescent dyes such as ethidium bromide or propidium iodide are excluded. A 40 μM concentration of L1AD3 caused approximately 93% of CEM cells to become Annexin-V-positive within 2.5 hours, which is unusually short for signs of apoptosis to occur. Camptothecin, a cancer chemotherapeutic agent administered in control experiments at 20 μM, caused only 33% of the cells to appear apoptotic.
Since whole CTX can rapidly permeabilize leukemic T-lymphocytes, separate experiments using a fluorescence spectrophotometer were applied to examine changes in plasma membrane permeability to ethidium bromide following exposure of CEM cells either to L1AD3 or to CTX.

[3] = system: embryonic chicken heart cells; test: beating of heart cells; type: cell-based; conditions: for time to cessation of beating of heart cells: 1 μM
Protocol: (§1) The L1AD3 peptide composition, Seq. […] It is believed that there is an absence of the L1AD3 protein receptor on the surface of normal human white blood cells, whereas the L1AD3 protein receptor target is found in the surface of leukemic T-cells.
(§2) The L1AD3 peptide stops tumor cell division in both Jurkat and CEM cells with an EC50 of approximately 5 μM, as shown in FIG. 8. This is indicated by the inhibition of thymidine incorporation into DNA. […] In contrast to CTX, which rapidly depolarized skeletal muscle (Dufton and Hider, 1991), and which at 1 μM concentrations causes cessation of beating of embryonic chicken heart cells within 5–10 seconds, the L1AD3 peptide at 40 μM concentrations has no effect upon the beating of heart cells over 2 hours of observation. Therefore, it is believed that the L1AD3 peptide, along with the other seven peptides, is not harmful to the heart, in contrast to native CTX.

[4] = system: normal human peripheral white blood cells (PBL's); test: Annexin-V binding / phosphatidyl serine externalization, normal human white blood cells; type: cell-based
Jurkat cells = test: thymidine incorporation into DNA of Jurkat cells; type: cell-based, human; conditions: read-out: EC50, inhibition of thymidine incorporation into DNA
Protocol: as §2

normal human cells = test: permeabilization of normal human cells (propidium iodide, ethidium bromide, trypan blue); type: cell-based; conditions: ethidium bromide or trypan blue
Description: as §1

CEM cells [5] = test: [3H]-thymidine incorporation into DNA of CEM cells; type: cell-based, human; conditions: for EC50: CEM cells, FIG. 8, read-out: EC50, inhibition of thymidine incorporation into DNA
Protocol: FIG. 8 is a graph showing percent inhibition of thymidine incorporation as a function of peptide concentration. Each well of a microtiter plate received 200,000 CEM cells in log phase of growth, suspended in 50 μl complete medium. The same volume of diluted peptide, either linear or cyclized, was added to achieve the final concentrations shown. After a 1 -hour incubation at 37 degrees C., 1 μCi of [^3H]-thymidine in 25 μl medium was added, and the plates were incubated another 3 hours prior to harvesting. Control cells were incubated without either peptide, but with the same volume of medium.
The peptide called L1AD3, Seq. ID No. 1, prevents the proliferation of cancerous human T-lymphocytes (CEM cell line) by inhibiting incorporation of thymidine into DNA.
as §2

[6] = system: human leukemic T-lymphocytes; conditions: previous comparisons of native toxins (Stevens-Truss & Hinman, 1997); cited from earlier work
CEM cells [7] = system: CEM cells
Protocol: To investigate peptide binding to cell surfaces, the peptide was modified by N-terminal biotinylation. […] A biotin-avidin sorbant assay, similar to an ELISA procedure was performed to measure binding. In this assay, horseradish peroxidase-conjugated avidin was employed rather than an enzyme-linked second antibody. Mouse anti-human MHC-1 (anti HLA-A,-B,-C) antibody was used to hold CEM or normal human cells to the surface of 96-well microtiter plates.
(§3) In order to investigate the nature of the binding site for L1AD3 on tumor cells, trypsin was added to the cells and subsequently quenched by adding enzyme inhibitor prior to measurements of binding, using biotinylated peptide in either the solid-phase or the fluorescent assay described above.

CEM cells [8] = test: biotin-avidin sorbant binding assay, adherent CEM cells; set-up: species or system human; conditions: for binding after pretreatment of cells with trypsin: solid-phase assay
Protocol: CEM cells were held on the surface of 96-well plates previously coated with anti-human MHC-1 antibody (anti-HLA-A,B,C). After plates containing adherent cells were blocked with bovine albumin and washed with PBS, biotinylated L1AD3, either alone (upper trace) or in a 1:1 ratio with non-biotinylated L1AD3 (lower trace), was added to triplicate wells to achieve the indicated final concentrations. After a 1-hour incubation at 37 degrees, plates were washed three times with PBS, and avidin-HRP was added. Enzyme substrate (ABTS) was added, and color development at 415 nm was monitored using an ELISA plate reader with printed output.
The lower two traces in the figure were developed as described above for FIG. 12, except that the target cells were human PBL's that had been isolated about 4 hours before the assay. […] In this case, 0.0125% trypsin was incubated with adherent cells for 10 min, followed by three washes and subsequent addition of soybean trypsin inhibitor.
(§4) A biotin-avidin sorbant assay, similar to an ELISA procedure was performed to measure binding. In this assay, horseradish peroxidase-conjugated avidin was employed rather than an enzyme-linked second antibody. Mouse anti-human MHC-1 (anti HLA-A,-B,-C) antibody was used to hold CEM or normal human cells to the surface of 96-well microtiter plates.
as §3

CEM cells [9] = system: CEM cells; remark: listed apart in the source
[10] = system: normal human peripheral blood lymphocytes; test: biotin-avidin sorbant binding assay, normal human PBL's; conditions: with or without non-biotinylated L1AD3
Protocol: FIG. 13 is a graph showing inhibition of specific binding of biotinylated L1AD3 to normal human peripheral blood lymphocytes by non-biotinylated L1AD3, and abolition of binding by pretreatment of CEM cells with trypsin. The lower two traces in the figure were developed as described above for FIG. 12, except that the target cells were human PBL's that had been isolated about 4 hours before the assay. […] In this case, 0.0125% trypsin was incubated with adherent cells for 10 min, followed by three washes and subsequent addition of soybean trypsin inhibitor.
as §4

CEM cells [11] = test: luciferin/luciferase bioluminescence assay of total ATP in CEM cells; type: cell-based, human
Protocol: FIG. 9 is a graph showing the amounts of total ATP present in cell lysates following incubation of CEM cells with peptide analogs. Cyclized peptides were added at double their final concentration, which was 20 μM, to triplicate wells of a black 96-well reaction plate. CEM cells (50,000 per well) were added in the same volume, and the plate was incubated 30 minutes at 37 degrees. Lysis buffer (Sigma) was added, followed by luciferin/luciferase assay buffer (Molecular Probes). The plate was sealed with a clear plastic film and read using a Packard Top-Count reader. Cells with medium only had ATP levels of 1073±160 in arbitrary luminescence units. Peptide analogs are identified by single amino acid modifications.
Changes in cellular energy levels can contribute to the process of cytotoxicity. ATP was measured using a 96-well luciferin/luciferase bioluminescence assay system and found a 60% reduction in ATP after 30 minutes' incubation of CEM cells with 20 μM L1AD3, as shown in FIG. 9. While somewhat large, this reduction of ATP is consistent with apoptosis, inasmuch as necrosis tends to occur when ATP levels drop to below 30% of control.

Question: With CC[C@@]1(O)C(=O)OCc2c1cc1n(c2=O)Cc2cc3ccccc3nc2-1 [Camptothecin] as the molecule, how does the “cells apoptotic (Annexin-V)” value (CEM cells [1]) read?
Answer: 33%

Question: And the “cells apoptotic (Annexin-V)” value (CEM cells [1]; listed as camptothecin)?
Answer: 23%

Question: And the “cell permeability to ethidium bromide or propidium iodide” value (CEM cells [2])?
Answer: neither L1AD3 nor camptothecin caused increases in cell permeability

Question: For CC(C)C[C@@H]1NC(=O)[C@H](CCCCN)NC(=O)[C@H](CC(N)=O)NC(=O)[C@@H](NC(=O)[C@H](CCCCN)NC(=O)[C@@H](N)CC(C)C)CSSC[C@@H](C(=O)O)NC(=O)[C@H]([C@@H](C)O)NC(=O)[C@H](CCCCN)NC(=O)[C@H](Cc2ccc(O)cc2)NC(=O)[C@H](Cc2ccccc2)NC(=O)[C@H](CC(C)C)NC(=O)[C@@H]2CCCN2C(=O)[C@H](C(C)C)NC1=O [L1AD3, Leu-Lys-Cys-Asn-Lys-Leu-Val-Pro-Leu-Phe-Tyr-Lys-Thr-Cys] (H-LKCNKLVPLFYKTC-OH; disulfide 3-14), which “effect upon the beating of heart cells” value ([3]; 40 μM, 2 hours) is on record?
Answer: no effect

Question: And the “externalization of phosphatidyl serine / Annexin-V binding in normal human white blood cells” value ([4]; 40 μM peptide (same concentration as CEM test))?
Answer: did not induce externalization of phosphatidyl serine; also recorded: not affected above background levels

Question: And the “Annexin-V labelling of T-cells, B-cells and macrophages among PBL's” value ([4]; 1-hour incubation, double-labeled with anti CD-3, CD-19, CD-14)?
Answer: all were within background levels

Question: And the EC50 (Jurkat cells)?
Answer: ~5 µM

Question: What about the “permeabilizing effect on normal human cells” value (normal human cells) of the same molecule?
Answer: no permeabilizing effect

Question: What about the EC50 (CEM cells [5]) of the same molecule?
Answer: ~5 µM

Question: Which results are given for CC(C)C[C@H](NC(=O)[C@H](CCCCN)NC(=O)[C@H](CC(N)=O)NC(=O)[C@H](CS)NC(=O)[C@H](CCCCN)NC(=O)[C@@H](N)CC(C)C)C(=O)N[C@H](C(=O)N1CCC[C@H]1C(=O)N[C@@H](CC(C)C)C(=O)N[C@@H](Cc1ccccc1)C(=O)N[C@@H](Cc1ccc(O)cc1)C(=O)N[C@@H](CCCCN)C(=O)N[C@H](C(=O)N[C@@H](CS)C(=O)O)[C@@H](C)O)C(C)C [Linear L1AD3] (H-LKCNKLVPLFYKTC-OH; N-terminus and C-terminus assumed)?
Answer: EC50 of linear peptide relative to cyclized counterpart (CEM cells [5]): more than eight times; EC50 (CEM cells [5]): ~43 µM

Question: Which “time to cessation of beating of heart cells” value [3] does the source give for “LKCNKLVPLFYKTCPAGKNLCYKMFMVATPKVPVKRGCIDVCPKSSLL VKYVCCNTDRCN (LKCNKLVPLFYKTCPAGKNLCYKMFMVATPKVPVKRGCIDVCPKSSLLVKYVCCNTDRCN; Naja naja atra) [CTX, parent 60-amino acid cytotoxin purified from the Taiwan cobra, Naja naja atra]” here?
Answer: 5 to 10 s

Question: And the “time to cessation of beating of heart cells” value ([3]; listed as “parent” cardiotoxin)?
Answer: 10 to 30 s

Question: And the “toxicity toward human leukemic T-lymphocytes” value [6]?
Answer: highly toxic

Question: And the “time until cells began to admit ethidium bromide” value (CEM cells [2]; 1.6 μM, fluorescence spectrophotometer)?
Answer: ≤ 15 min

Question: And the “time to induced permeability to propidium iodide” value (CEM cells [2]; 10 μM, fluorescence microscopy)?
Answer: ≤ 30 s

Question: And the “cell permeability to ethidium bromide or propidium iodide” value (CEM cells [2])?
Answer: rapidly became permeable

Question: What does the source list for “Biotin-LKCNKLVPLFYKTC (cysteine pairing not given here) [biotinylated L1AD3]”?
Answer: fluorescence increase over cells not incubated with biotinylated peptide (CEM cells [7]; avidin-FITC, CEM cells in suspension): 48%; binding after pretreatment of cells with trypsin (CEM cells [7]; fluorescent assay): abolished binding; binding to human cancer cells (CEM cells [8]): bound human cancer cells; also recorded: preserves its ability to bind cancer cells; Kd (CEM cells [8]; saturable binding, read-out: apparent KD of binding to CEM cells): ~6 µM; binding after pretreatment of cells with trypsin (CEM cells [8]): abolished; binding after pretreatment of cells with trypsin (CEM cells [8]; listed as biotinylated peptide): abolished binding; other activities after biotinylation (CEM cells [9]): significantly diminished; binding to normal human white blood cells / PBL's [10]: did not bind appreciably; ability to reduce ATP levels in cancer cells (CEM cells [11]): retains its ability to reduce ATP levels
